The source made the active and inactive calls.
Assays:
Beta-lactamase [1] = target: T1, Beta-lactamase (Pseudomonas aeruginosa, UniProt Q79MP6); assay: inhibition of IMP-1 beta-lactamase activity – biochemical, epi-absorbance, selectivity assay for VIM-2 inhibitor project, dose response (AID 1920)
Beta-lactamase [2] = target: T1, Beta-lactamase; assay: […] counterscreen for selective VIM-2 inhibitors: dose response biochemical high throughput screening assay to identify inhibitors of IMP-1 metallo-beta-lactamase.
Beta-lactamase [3] = target: Beta-lactamase (Salmonella choleraesuis (strain SC-B67), UniProt Q5J463); assay: Epi-absorbance-based counterscreen for selective VIM-2 inhibitors: dose response biochemical high throughput screening assay to identify inhibitors of TEM-1 serine-beta-lactamase.
Chain of Beta-lactamase (Salmonella choleraesuis (strain SC-B67), UniProt Q5J463) (Q5J463 whole entry): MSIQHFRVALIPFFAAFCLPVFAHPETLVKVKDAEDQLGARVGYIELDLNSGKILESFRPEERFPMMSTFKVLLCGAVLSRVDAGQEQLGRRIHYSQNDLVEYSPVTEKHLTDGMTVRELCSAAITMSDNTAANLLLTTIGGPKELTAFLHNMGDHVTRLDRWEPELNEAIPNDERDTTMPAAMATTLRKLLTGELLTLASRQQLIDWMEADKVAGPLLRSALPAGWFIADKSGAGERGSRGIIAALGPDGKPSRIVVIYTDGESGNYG

[4] = target: T2, Small ubiquitin-related modifier 1 (Homo sapiens, UniProt P63165); assay: SUMO1 protein-protein binding blockers, potency – biochemical, FRET, dose response (AID 624383); assay type: functional; details: read-out: IC50_Mean
T2 sequence (P63165 whole entry): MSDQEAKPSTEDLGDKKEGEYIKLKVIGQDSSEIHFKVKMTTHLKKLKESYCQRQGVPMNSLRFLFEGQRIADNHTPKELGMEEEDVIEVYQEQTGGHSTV

[5] = target: T2, Small ubiquitin-related modifier 1; assay: SUMO1 protein interaction blockers, potency – biochemical, fluorescence polarization, uHTS hits, dose response (AID 624382); assay type: functional; details: read-out: IC50_Mean
Streptokinase A = target: T3, Streptokinase A (Streptococcus pyogenes serotype M1, UniProt P10520); assay: viability-normalized secreted streptokinase activity reduction – plasminogen activation absorbance, OD405, dose response (AID 1914); assay type: functional, Streptococcus pyogenes M1 GAS;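 further: secreted streptokinase activity via plasminogen activation per viability signal from cell pellet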
T3 sequence (P10520 whole entry): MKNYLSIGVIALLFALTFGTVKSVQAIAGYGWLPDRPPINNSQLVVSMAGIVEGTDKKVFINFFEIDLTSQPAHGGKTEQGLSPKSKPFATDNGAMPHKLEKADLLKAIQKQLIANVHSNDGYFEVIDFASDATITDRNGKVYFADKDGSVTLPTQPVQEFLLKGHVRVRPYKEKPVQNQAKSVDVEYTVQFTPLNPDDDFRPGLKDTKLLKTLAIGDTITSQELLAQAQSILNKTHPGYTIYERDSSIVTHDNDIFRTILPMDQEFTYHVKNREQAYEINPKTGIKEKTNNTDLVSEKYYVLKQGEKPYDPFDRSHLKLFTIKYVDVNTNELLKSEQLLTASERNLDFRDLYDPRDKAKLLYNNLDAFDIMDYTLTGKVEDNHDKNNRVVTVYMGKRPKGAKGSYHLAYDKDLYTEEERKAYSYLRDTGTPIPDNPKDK

[6] = tested on: Streptococcus sp. 'group A'; assay: Streptococcus pyogenes SK(-)GAS viability under kanamycin – luminescence, BacTiterGlo, confirmation, counter-screen for streptokinase expression inhibitor project, dose response (AID 1900); assay type: functional, organism-based
Streptococcus = assay: GAS UMAA2166 growth inhibition – luminescence, BacTiterGlo, counter-screen for streptokinase expression inhibitor project, dose response (AID 1915); assay type: functional, organism-based;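 further: potency for reduction of bacterial viability or growth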
[7] = target: T4, Rac GTPase-activating protein 1 (Homo sapiens, UniProt Q9H0H5); assay: blockers of MgcRacGAP-driven Rac1 GTP hydrolysis – biochemical, ADP Hunter fluorescence, primary and confirmatory, confirmation (AID 624330); assay type: functional
T4 sequence (Q9H0H5 whole entry): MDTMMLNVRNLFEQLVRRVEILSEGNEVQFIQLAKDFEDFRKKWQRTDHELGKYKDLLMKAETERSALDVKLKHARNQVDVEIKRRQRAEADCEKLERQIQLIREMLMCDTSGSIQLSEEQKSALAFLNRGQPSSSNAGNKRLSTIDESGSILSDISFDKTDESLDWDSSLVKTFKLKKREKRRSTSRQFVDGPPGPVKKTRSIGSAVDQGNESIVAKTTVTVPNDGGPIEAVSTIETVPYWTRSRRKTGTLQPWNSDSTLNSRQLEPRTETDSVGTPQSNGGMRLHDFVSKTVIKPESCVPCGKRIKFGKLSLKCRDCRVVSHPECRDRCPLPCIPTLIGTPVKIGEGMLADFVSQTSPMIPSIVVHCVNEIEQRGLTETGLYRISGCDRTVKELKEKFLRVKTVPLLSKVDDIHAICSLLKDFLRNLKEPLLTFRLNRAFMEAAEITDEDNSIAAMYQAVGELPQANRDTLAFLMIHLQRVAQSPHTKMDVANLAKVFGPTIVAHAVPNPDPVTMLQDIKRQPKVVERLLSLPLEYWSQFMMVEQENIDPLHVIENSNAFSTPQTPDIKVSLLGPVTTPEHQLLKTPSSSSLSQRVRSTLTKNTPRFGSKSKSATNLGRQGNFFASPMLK

[8] = microbe, parasite or virus in culture; assay type: functional; details: Mycobacterium tuberculosis
[9] = Trypanosoma cruzi growth suppression in host cells – NIH3T3 host cells, beta-gal luminescence, confirmation (AID 2044); assay type: functional, cell-based;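 further: intracellular parasites grown in NIH/3T3 mouse fibroblasts as host cells; luminescent beta-galactosidase reporter signal from transgenic T. cruzi replicating inside host cells; inhibitors lower the luminescence signal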
[10] = viability loss in HeLa cells – cytotoxicity control for MgcRacGAP inhibitor project, dose response (AID 624300); assay type: functional
[11] = target: T5, Ubiquitin-conjugating enzyme E2 N (Homo sapiens, UniProt P61088); assay type: functional;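 further: Dose-response confirmation in a TR-FRET assay detecting UBC13-driven polyubiquitin chain formation, inhibition measured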
T5 sequence (P61088 whole entry): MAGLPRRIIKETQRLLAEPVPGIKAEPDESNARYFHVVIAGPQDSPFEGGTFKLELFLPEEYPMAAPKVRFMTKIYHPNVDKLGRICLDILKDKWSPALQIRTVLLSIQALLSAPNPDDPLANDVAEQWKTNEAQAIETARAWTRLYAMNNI

[12] = NIH3T3 cell viability loss – ATP luminescence, mouse fibroblasts, counter-screen, dose response (AID 2010); assay type: functional, cell-based;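 further: cells exposed to compound for about 90 hours before reading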
[13] = target: T6, Low molecular weight phosphotyrosine protein phosphatase (Homo sapiens, UniProt P24666); assay type: functional; details: read-out: IC50_Mean
T6 sequence (P24666 whole entry): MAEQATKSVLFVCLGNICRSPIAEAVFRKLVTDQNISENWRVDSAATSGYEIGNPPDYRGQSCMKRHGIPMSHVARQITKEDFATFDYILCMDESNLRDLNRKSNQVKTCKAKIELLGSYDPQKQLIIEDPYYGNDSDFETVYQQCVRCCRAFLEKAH

[14] = target: T6, Low molecular weight phosphotyrosine protein phosphatase; assay type: functional; details: read-out: IC50_Mean; remark: listed apart in the source
[15] = target: Induced myeloid leukemia cell differentiation protein Mcl-1 (Homo sapiens, UniProt Q07820); assay type: functional
Chain of Induced myeloid leukemia cell differentiation protein Mcl-1 (Q07820 whole entry): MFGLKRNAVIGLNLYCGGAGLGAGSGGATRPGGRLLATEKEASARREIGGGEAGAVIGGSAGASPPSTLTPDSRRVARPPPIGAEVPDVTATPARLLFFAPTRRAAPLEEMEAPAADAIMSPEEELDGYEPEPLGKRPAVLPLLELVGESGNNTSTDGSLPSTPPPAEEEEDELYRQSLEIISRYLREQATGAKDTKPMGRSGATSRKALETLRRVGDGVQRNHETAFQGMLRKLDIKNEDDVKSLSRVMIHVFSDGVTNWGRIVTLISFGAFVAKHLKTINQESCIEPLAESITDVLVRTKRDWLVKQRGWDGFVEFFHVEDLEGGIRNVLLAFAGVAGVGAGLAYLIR

Large T antigen = Large T antigen (Simian virus 40, UniProt P03070); assay type: functional, Betapolyomavirus macacae;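 further: Confirmatory-stage PubChem screen for compounds that inhibit SV40 T antigen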
Chain of Large T antigen (P03070 whole entry): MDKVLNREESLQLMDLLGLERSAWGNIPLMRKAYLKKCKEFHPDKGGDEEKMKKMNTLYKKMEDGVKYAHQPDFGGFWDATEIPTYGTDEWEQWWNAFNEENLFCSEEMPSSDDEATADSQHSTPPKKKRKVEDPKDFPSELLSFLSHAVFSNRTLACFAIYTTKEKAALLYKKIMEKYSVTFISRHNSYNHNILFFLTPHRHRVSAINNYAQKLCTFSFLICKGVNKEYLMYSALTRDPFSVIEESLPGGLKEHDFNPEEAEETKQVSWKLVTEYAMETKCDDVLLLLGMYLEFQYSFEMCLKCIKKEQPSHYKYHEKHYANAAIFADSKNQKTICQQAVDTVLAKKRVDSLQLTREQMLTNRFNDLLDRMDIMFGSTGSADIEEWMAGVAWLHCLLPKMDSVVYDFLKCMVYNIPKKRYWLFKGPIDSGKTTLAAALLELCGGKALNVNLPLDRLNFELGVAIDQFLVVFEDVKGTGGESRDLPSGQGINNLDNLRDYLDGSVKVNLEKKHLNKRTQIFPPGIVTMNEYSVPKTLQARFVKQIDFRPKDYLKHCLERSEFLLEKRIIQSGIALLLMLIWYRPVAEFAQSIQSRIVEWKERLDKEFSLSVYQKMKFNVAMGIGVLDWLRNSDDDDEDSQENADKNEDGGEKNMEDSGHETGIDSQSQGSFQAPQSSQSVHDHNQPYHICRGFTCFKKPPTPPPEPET

[16] = target: DNA (cytosine-5)-methyltransferase 1 (Homo sapiens, UniProt P26358); assay: inhibition of DNA methylation by DNMT1 – biochemical, fluorescent molecular beacon, confirmation (AID 602386); assay type: functional
[17] = target: T7, Histone-lysine N-methyltransferase NSD2 (Homo sapiens, UniProt O96028); assay type: biochemical
T7 sequence (O96028 whole entry): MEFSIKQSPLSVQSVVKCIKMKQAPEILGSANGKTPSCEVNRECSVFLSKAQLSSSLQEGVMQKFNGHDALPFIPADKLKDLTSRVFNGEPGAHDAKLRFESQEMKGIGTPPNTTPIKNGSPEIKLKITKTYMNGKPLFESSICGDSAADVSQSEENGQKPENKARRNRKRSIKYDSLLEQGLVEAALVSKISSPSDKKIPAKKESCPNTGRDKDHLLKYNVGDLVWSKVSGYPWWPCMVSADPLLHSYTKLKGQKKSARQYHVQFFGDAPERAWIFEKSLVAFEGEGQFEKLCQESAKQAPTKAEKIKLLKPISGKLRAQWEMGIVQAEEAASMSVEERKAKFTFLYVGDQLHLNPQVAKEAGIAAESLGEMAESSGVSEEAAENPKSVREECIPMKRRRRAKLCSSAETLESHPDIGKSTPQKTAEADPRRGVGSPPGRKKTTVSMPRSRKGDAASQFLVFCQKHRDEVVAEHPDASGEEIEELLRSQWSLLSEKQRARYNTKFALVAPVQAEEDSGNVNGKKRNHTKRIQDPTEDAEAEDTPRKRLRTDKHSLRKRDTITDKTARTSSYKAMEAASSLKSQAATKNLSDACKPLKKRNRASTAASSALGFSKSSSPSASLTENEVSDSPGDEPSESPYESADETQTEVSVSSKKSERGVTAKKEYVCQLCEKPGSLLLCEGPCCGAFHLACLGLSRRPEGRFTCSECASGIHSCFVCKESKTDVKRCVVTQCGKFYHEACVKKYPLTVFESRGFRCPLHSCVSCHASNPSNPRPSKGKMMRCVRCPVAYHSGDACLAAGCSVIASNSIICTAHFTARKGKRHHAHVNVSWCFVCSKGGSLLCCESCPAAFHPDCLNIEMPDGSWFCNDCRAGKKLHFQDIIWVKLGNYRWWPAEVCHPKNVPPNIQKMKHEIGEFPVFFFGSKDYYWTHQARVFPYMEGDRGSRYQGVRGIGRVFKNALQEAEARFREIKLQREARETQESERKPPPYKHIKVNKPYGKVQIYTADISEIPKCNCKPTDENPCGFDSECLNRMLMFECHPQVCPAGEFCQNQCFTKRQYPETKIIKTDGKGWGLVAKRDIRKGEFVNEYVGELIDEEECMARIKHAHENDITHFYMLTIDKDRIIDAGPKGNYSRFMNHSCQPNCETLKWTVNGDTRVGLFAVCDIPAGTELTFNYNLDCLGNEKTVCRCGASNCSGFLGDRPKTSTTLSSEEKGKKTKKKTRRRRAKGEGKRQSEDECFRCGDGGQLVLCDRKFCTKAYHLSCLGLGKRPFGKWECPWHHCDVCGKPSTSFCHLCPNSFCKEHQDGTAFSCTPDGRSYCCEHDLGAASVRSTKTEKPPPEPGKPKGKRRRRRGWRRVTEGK

Fatty acid synthase [18] = target: T8, Fatty acid synthase (Homo sapiens, UniProt P49327); assay: inhibition of human FAS-TE enzyme activity – biochemical, kinetic fluorescence intensity, dose response (AID 624326); assay type: functional;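 further: rate of fluorescence rise from hydrolysis of a fluorogenic O-methyl fluorescein ester substrate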
T8 sequence (P49327 whole entry): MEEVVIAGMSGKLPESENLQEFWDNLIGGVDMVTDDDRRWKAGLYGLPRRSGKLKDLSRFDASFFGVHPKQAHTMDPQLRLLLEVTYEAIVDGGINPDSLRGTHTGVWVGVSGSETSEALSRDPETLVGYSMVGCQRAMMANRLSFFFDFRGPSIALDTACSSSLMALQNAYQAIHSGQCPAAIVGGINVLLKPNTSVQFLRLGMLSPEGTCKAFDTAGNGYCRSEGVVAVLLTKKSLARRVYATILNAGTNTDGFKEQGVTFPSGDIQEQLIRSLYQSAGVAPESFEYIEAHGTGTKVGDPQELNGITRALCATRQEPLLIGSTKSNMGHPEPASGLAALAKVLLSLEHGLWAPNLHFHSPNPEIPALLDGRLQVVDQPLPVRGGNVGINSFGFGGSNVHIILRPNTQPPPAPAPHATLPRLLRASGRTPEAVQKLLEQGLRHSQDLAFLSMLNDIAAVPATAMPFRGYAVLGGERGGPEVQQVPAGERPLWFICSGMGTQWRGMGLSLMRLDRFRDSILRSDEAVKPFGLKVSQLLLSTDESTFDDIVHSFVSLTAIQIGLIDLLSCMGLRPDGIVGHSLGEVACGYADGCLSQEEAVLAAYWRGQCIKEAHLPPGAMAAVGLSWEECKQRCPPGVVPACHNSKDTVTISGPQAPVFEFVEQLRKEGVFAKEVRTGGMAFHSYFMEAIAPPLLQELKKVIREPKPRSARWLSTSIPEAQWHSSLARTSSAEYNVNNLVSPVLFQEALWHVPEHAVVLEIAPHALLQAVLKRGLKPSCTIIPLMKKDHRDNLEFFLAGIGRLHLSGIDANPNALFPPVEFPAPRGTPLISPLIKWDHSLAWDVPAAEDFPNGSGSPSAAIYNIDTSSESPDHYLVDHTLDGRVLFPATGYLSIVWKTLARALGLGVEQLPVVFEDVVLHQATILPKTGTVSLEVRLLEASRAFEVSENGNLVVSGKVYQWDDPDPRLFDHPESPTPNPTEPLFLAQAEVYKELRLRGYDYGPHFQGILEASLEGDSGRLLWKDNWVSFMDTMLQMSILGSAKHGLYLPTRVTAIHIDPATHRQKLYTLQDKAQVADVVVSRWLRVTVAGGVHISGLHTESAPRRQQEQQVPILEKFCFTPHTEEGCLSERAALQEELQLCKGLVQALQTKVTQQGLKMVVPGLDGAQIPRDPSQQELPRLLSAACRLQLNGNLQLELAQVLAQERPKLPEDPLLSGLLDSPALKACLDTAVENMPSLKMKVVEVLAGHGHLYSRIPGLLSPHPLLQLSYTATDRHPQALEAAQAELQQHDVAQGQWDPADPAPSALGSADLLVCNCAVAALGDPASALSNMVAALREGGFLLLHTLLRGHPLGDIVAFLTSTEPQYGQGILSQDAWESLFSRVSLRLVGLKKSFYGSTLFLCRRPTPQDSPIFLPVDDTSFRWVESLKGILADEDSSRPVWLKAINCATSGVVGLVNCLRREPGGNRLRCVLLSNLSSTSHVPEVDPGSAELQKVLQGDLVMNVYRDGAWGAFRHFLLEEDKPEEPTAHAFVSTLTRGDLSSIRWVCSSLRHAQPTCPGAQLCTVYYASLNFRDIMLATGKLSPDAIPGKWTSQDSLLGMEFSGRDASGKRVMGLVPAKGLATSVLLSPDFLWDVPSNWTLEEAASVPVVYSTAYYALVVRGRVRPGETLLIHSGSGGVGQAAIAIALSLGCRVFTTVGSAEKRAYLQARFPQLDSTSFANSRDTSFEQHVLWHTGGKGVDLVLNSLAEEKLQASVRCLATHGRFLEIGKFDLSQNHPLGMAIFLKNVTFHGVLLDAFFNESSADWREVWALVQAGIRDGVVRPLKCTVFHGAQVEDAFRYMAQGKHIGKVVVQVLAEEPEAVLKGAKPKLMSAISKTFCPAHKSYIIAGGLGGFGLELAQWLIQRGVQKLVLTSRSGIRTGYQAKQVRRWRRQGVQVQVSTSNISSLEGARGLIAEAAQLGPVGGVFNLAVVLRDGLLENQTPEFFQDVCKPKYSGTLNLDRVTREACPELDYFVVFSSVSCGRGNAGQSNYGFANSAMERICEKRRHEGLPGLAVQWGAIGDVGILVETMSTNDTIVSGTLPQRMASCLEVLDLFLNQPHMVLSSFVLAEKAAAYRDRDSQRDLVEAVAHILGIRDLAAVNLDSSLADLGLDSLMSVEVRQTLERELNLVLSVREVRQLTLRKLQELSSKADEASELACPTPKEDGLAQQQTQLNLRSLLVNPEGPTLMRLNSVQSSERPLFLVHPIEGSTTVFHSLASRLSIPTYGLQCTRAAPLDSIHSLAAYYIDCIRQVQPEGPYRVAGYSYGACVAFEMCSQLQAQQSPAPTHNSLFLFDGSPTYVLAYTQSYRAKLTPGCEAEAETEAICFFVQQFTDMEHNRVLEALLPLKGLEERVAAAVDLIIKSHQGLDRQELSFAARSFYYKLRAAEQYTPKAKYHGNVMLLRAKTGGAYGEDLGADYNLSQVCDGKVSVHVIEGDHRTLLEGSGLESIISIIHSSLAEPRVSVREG

Fatty acid synthase [19] = target: T8, Fatty acid synthase; assay: inhibition of human FAS-TE enzyme activity – biochemical, endpoint fluorescence intensity, uHTS hits, dose response (AID 624327); assay type: functional;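 further: fluorescence from hydrolysis of an O-methyl fluorescein acyl ester substrate by the enzyme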
[20] = target: Photoreceptor-specific nuclear receptor (Homo sapiens, UniProt Q9Y5X4); assay type: functional, cell-based;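 further: CHO-S cells with Gal4-NCOR and VP16-NR2E3 two-hybrid luciferase reporter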
Chain of Photoreceptor-specific nuclear receptor (Q9Y5X4 whole entry, the tested form may be a part): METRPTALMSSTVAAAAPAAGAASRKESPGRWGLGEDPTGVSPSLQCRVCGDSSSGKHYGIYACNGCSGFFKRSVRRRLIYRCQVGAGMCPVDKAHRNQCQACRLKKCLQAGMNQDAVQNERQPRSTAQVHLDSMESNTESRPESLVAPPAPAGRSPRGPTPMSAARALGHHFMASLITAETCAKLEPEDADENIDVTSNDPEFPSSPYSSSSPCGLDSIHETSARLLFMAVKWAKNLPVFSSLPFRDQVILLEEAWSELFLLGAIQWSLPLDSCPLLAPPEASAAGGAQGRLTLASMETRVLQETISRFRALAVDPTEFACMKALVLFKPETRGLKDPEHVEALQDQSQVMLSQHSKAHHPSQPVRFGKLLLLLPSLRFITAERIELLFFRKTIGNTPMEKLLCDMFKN

[21] = non-specific 3'UTR reporter inhibition in Clone20-Shn3RL – cell-based, Renilla luciferase, cherry-picked, counter-screen for Shn3 inhibitor project, dose response (AID 624133); assay type: functional
[22] = loss of viability in HepG2 cells – cell-based, CellTiter-Glo, cherry-picked, cytotoxicity control for Shn3 inhibitor project, dose response (AID 624134); assay type: functional
[23] = reduction of Shn3 3'UTR-driven luciferase in osteoblasts – cell-based, Clone20 osteoblasts, firefly luciferase, cherry-picked, dose response (AID 624132); assay type: functional;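 further: firefly luciferase luminescence from reporter carrying the Shn3 3'UTR in osteoblasts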

T1 sequence (Q79MP6 whole entry): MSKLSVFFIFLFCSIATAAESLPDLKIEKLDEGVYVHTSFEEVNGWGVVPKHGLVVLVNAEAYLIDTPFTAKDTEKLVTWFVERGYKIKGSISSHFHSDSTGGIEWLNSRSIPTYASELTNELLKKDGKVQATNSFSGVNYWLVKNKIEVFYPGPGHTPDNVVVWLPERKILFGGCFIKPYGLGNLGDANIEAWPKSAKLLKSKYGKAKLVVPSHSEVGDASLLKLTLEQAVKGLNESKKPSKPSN

## Cc1n[nH]c(C)c1CCCCOc1ccc([N+](=O)[O-])cc1
Beta-lactamase [1]
  IC50: > 59.6 µM (inactive)
Beta-lactamase [2]
  IC50: > 59.6 µM (inactive)
Beta-lactamase [3]
  IC50: > 59.6 µM (inactive)

## COc1ccc(-c2csc(NC(=S)NC(=O)c3cccs3)n2)cc1OC
[4]
  IC50: 7.27 µM (active)
[5]
  IC50: > 66.6 µM (inactive)
Streptokinase A
  EC50: > 150 µM (not active)
[6]
  EC50: 23.4 µM (active)
Streptococcus
  EC50: 74.3 µM (active)

## CCOC(=O)c1c(C)n(-c2ccc(C)cc2)c2ccc(OCC(O)CNCC3CCCO3)cc12 (configuration not stated)
[7]
  IC50: 131 µM (active)
[8]
  CC50: 13.2 µM (active)
[9]
  EC50: 1.51 µM (active)
[10]
  CC50: 39.7 µM (active)
[11]
  IC50: > 20 µM (inactive)
[12]
  EC50: > 60 µM (not active)

## CC(C)OCCCNc1nc(-c2ccccc2)nc2ccccc12
[13]
  IC50: 11.7 µM (active)
[14]
  IC50: 22.9 µM (inactive)

## Nc1nc(N)c(Cc2ccc(Cl)cc2Cl)c(N)n1
[13]
  IC50: 7.44 µM (active)
[14]
  IC50: 11.9 µM (active)

## CCCCN1C(=O)/C(=C/C=C/c2ccco2)C(=O)NC1=S
[15]
  IC50: 2.18 µM (active)
Large T antigen
  IC50: 7.95 µM (active)
[16]
  IC50: 3.39 µM (active)
[17]
  AC50: 4.72 µM (active)

## CC(C)Oc1ccc(Cc2nnc(S)n2Cc2ccccc2)cc1Cl
Fatty acid synthase [18]
  IC50: 6.09 µM (active)
Fatty acid synthase [19]
  IC50: 6.4 µM (active)

## Cc1c(C)c2ccc(OCC(=O)N3CCC[C@@H]3C(=O)O)c(C)c2oc1=O
Beta-lactamase [1]
  IC50: > 59.6 µM (inactive)
Beta-lactamase [2]
  IC50: > 59.6 µM (inactive)
Beta-lactamase [3]
  IC50: > 59.6 µM (inactive)

## CC(=O)Nc1cc(O)c2cccnc2n1
[13]
  IC50: 25.9 µM (inactive)
[14]
  IC50: 38.7 µM (inactive)

## CC(C)C[C@@H](CNCC(=O)[C@H](Cc1ccccc1)NC(=O)c1nc[nH]c1C(=O)N[C@H](CN)CC(C)C)NC(=O)c1[nH]cnc1C(=O)N[C@@H](CC(=O)O)C(=O)O
[4]
  IC50: 20.4 µM (inactive)
[5]
  IC50: > 66.6 µM (inactive)

## C#Cc1cccc(Nc2nc(NCc3ccccc3)nc3ccsc23)c1
[20]
  IC50: 7.02 µM (active)

## NS(=O)(=O)c1ccc(CCNc2nn3c(-c4cccc(OC(F)(F)F)c4)cnc3s2)cc1
[21]
  AC50: 852 nM (active)
[20]
  IC50: 6.96 µM (active)
[22]
  AC50: 52.5 µM (active)
[23]
  AC50: 3.93 µM (active)

## O=[N+]([O-])c1ccc(S(=O)(=O)N/N=C/c2ccc3c(c2)OCO3)cc1
Fatty acid synthase [18]
  IC50: 5.36 µM (active)
Fatty acid synthase [19]
  IC50: 5.55 µM (active)

## Cc1cc(=O)n2nc(-c3ccc(C(C)(C)C)cc3)cc2[nH]1
Fatty acid synthase [18]
  IC50: 15 µM (active)
Fatty acid synthase [19]
  IC50: 9.51 µM (active)
[9]
  EC50: 0.646 µM (active)
[12]
  EC50: > 60 µM (not active)
